Patent publication US20250360235A1, “RADI[…] AND METHOD FOR RADIOLABELLING” (Telix Innovations SA, priority 2024, published 2025)

Assays:
[1] = Radiochemical purity by HPLC over time after radiolabelling; assay type: physicochemical
Description: (§1) Table 1 to Table 5 show the results of various radiolabelling experiments on radiochemical purity and the chelation yield. The radiolabelling experiments in the tables are carried out as described in: • Example 1 for when the gallium-68 source is GE Liquid target generator and EZAG GalliaPharm generator; • Example 2 for when the gallium-68 source is IRE Galli Eo generator; • Example 3 for when the gallium-68 source is GE solid target generator;
(§2) However, the experiments were carried out with the amount of ascorbic acid as indicated in the Tables 1 to 5, and the activity as indicated in the Tables 1 to 5. Radiochemical purities were measured at various times (T0, T1, T4, T6) after the radiolabelled experiments have been conducted.
(§3) The kits of Example 1, Example 2 or Example 3, with amounts of ascorbic acid as set out in Table 7 were used in the experiments for the ascorbic acid bracketing matrix. Three strengths of [^68Ga]Ga-PSMA-11 will be tested, i.e. 50 mCi/ml, 7 mCi/ml and 1 mCi/ml. Radiochemical purity was determined at different time points (TO, T1, T4 or T6), as set out in Table 7.

[2] = Visual inspection of [68Ga]PSMA-11 solution (acceptance: colourless to slightly yellow solution, free from visible particles); assay type: physicochemical; set-up: key: C = conforms to specifications
Description: as §1, §2, §3

O=C([O-])CN(CCN(CC(=O)[O-])Cc1cc(CCC(=O)NCCCCCC(=O)NCCCC[C@H](NC(=O)N[C@@H](CCC(=O)O)C(=O)O)C(=O)O)ccc1[O-])Cc1cc(CCC(=O)O)ccc1[O-].[68Ga+3].[OH3+] [[^68Ga]PSMA-11, gallium-68 radiolabelled Glu-urea-Lys-HBED-CC (gozetotide or PSMA-11)]
Radiochemical Purity (HPLC) Ga-68 PSMA-11 (%) ([1]; bracketing ~7 mCi/mL, 25 mg ascorbic acid, 51.6-74.4 mCi, 4.56-6.92 mCi/mL, 3 × GE Liquid Target, 3 × IRE Galli Eo, 3 × EZAG GalliaPharm, average of 9, T0): 100% | Radiochemical Purity (HPLC) Ga-68 PSMA-11 (%) ([1]; bracketing ~7 mCi/mL, 25 mg ascorbic acid, 51.6-74.4 mCi, 4.56-6.92 mCi/mL, 3 × GE Liquid Target, 3 × IRE Galli Eo, 3 × EZAG GalliaPharm, average of 9, T4 (4 h)): 100% | Radiochemical Purity (HPLC) Ga-68 PSMA-11 (%) ([1]; bracketing ~7 mCi/mL, 31.25 mg ascorbic acid, 61.5-62.0 mCi, 5.85-5.88 mCi/mL, EZAG GalliaPharm, average of 2, T0): 100% | Radiochemical Purity (HPLC) Ga-68 PSMA-11 (%) ([1]; bracketing ~7 mCi/mL, 31.25 mg ascorbic acid, 61.5-62.0 mCi, 5.85-5.88 mCi/mL, EZAG GalliaPharm, average of 2, T4 (4 h)): 100% | Radiochemical Purity (HPLC) Ga-68 PSMA-11 (%) ([1]; bracketing ~50 mCi/mL, 20 mg ascorbic acid, 514-544 mCi, 48.3-51.9 mCi/mL, GE Solid Target, average of 2, T0): 100% | Radiochemical Purity (HPLC) Ga-68 PSMA-11 (%) ([1]; bracketing ~50 mCi/mL, 20 mg ascorbic acid, 514-544 mCi, 48.3-51.9 mCi/mL, GE Solid Target, average of 2, T6 (6 h)): 100% | Radiochemical Purity (HPLC) Ga-68 PSMA-11 (%) ([1]; bracketing ~50 mCi/mL, 25 mg ascorbic acid, 537-551 mCi, 50.2-51.6 mCi/mL, GE Solid Target, average of 3, T0): 100% | Radiochemical Purity (HPLC) Ga-68 PSMA-11 (%) ([1]; bracketing ~50 mCi/mL, 25 mg ascorbic acid, 537-551 mCi, 50.2-51.6 mCi/mL, GE Solid Target, average of 3, T6 (6 h)): 100% | Radiochemical Purity (HPLC) Ga-68 PSMA-11 (%) ([1]; bracketing ~50 mCi/mL, 31.25 mg ascorbic acid, 500-544 mCi, 48.1-51.7 mCi/mL, GE Solid Target, average of 2, T0): 100% | Radiochemical Purity (HPLC) Ga-68 PSMA-11 (%) ([1]; bracketing ~50 mCi/mL, 31.25 mg ascorbic acid, 500-544 mCi, 48.1-51.7 mCi/mL, GE Solid Target, average of 2, T6 (6 h)): 100% | Radiochemical Purity (HPLC) Ga-68 PSMA-11 (%) ([1]; validation batches, 25 mg ascorbic acid, 51.6-62.7 mCi, 4.56-5.88 mCi/mL, IRE Galli Eo, average of 3, T0): 100% | Radiochemical Purity (HPLC) Ga-68 PSMA-11 (%) ([1]; validation batches, 25 mg ascorbic acid, 51.6-62.7 mCi, 4.56-5.88 mCi/mL, IRE Galli Eo, average of 3, T4 (4 h)): 100% | Radiochemical Purity (HPLC) Ga-68 PSMA-11 (%) ([1]; validation batches, 25 mg ascorbic acid, 51.6-62.7 mCi, 4.56-5.88 mCi/mL, IRE Galli Eo, n=3, T0): C (C = all results conform to specifications) | Radiochemical Purity (HPLC) Ga-68 PSMA-11 (%) ([1]; validation batches, 25 mg ascorbic acid, 51.6-62.7 mCi, 4.56-5.88 mCi/mL, IRE Galli Eo, n=3, T4 (4 h)): C (C = all results conform to specifications) | Radiochemical Purity (HPLC) Ga-68 PSMA-11 (%) ([1]; validation batches, 25 mg ascorbic acid, 53.3-74.4 mCi, 5.03-6.92 mCi/mL, GE Liquid target, average of 3, T0): 99% | Radiochemical Purity (HPLC) Ga-68 PSMA-11 (%) ([1]; validation batches, 25 mg ascorbic acid, 53.3-74.4 mCi, 5.03-6.92 mCi/mL, GE Liquid target, average of 3, T4 (4 h)): 100% | Radiochemical Purity (HPLC) Ga-68 PSMA-11 (%) ([1]; validation batches, 25 mg ascorbic acid, 53.3-74.4 mCi, 5.03-6.92 mCi/mL, GE Liquid target, n=3, T0): C (C = all results conform to specifications) | Radiochemical Purity (HPLC) Ga-68 PSMA-11 (%) ([1]; validation batches, 25 mg ascorbic acid, 53.3-74.4 mCi, 5.03-6.92 mCi/mL, GE Liquid target, n=3, T4 (4 h)): C (C = all results conform to specifications) | Radiochemical Purity (HPLC) Ga-68 PSMA-11 (%) ([1]; validation batches, 25 mg ascorbic acid, 65.0-66.4 mCi, 5.74-6.15 mCi/mL, EZAG GalliaPharm, average of 3, T0): 100% | Radiochemical Purity (HPLC) Ga-68 PSMA-11 (%) ([1]; validation batches, 25 mg ascorbic acid, 65.0-66.4 mCi, 5.74-6.15 mCi/mL, EZAG GalliaPharm, average of 3, T4 (4 h)): 100% | Radiochemical Purity (HPLC) Ga-68 PSMA-11 (%) ([1]; validation batches, 25 mg ascorbic acid, 65.0-66.4 mCi, 5.74-6.15 mCi/mL, EZAG GalliaPharm, n=3, T0): C (C = all results conform to specifications) | Radiochemical Purity (HPLC) Ga-68 PSMA-11 (%) ([1]; validation batches, 25 mg ascorbic acid, 65.0-66.4 mCi, 5.74-6.15 mCi/mL, EZAG GalliaPharm, n=3, T4 (4 h)): C (C = all results conform to specifications) | Radiochemical Purity (HPLC) Ga-68 PSMA-11 ([1]; validation batches, 25 mg ascorbic acid, 537-551 mCi, 50.2-51.6 mCi/mL, GE Solid Target, average of 3, T0): 100% | Radiochemical Purity (HPLC) Ga-68 PSMA-11 ([1]; validation batches, 25 mg ascorbic acid, 537-551 mCi, 50.2-51.6 mCi/mL, GE Solid Target, average of 3, T6 (6 h)): 100% | Radiochemical Purity (HPLC) Ga-68 PSMA-11 ([1]; validation batches, 25 mg ascorbic acid, 537-551 mCi, 50.2-51.6 mCi/mL, GE Solid Target, n=3, T0): C (C = all results conform to specifications) | Radiochemical Purity (HPLC) Ga-68 PSMA-11 ([1]; validation batches, 25 mg ascorbic acid, 537-551 mCi, 50.2-51.6 mCi/mL, GE Solid Target, n=3, T6 (6 h)): C (C = all results conform to specifications) | Radiochemical Purity (HPLC) Ga-68 PSMA-11 ([1]; validation batches, 25 mg ascorbic acid, 555-564 mCi, 51.1-52.7 mCi/mL, ARTMS Solid Target, average of 3, T0): 99% | Radiochemical Purity (HPLC) Ga-68 PSMA-11 ([1]; validation batches, 25 mg ascorbic acid, 555-564 mCi, 51.1-52.7 mCi/mL, ARTMS Solid Target, average of 3, T6 (6 h)): 100% | Radiochemical Purity (HPLC) Ga-68 PSMA-11 ([1]; validation batches, 25 mg ascorbic acid, 555-564 mCi, 51.1-52.7 mCi/mL, ARTMS Solid Target, n=3, T0): C (C = all results conform to specifications) | Radiochemical Purity (HPLC) Ga-68 PSMA-11 ([1]; validation batches, 25 mg ascorbic acid, 555-564 mCi, 51.1-52.7 mCi/mL, ARTMS Solid Target, n=3, T6 (6 h)): C (C = all results conform to specifications) | Visual Inspection ([2]; 1 mg ascorbic acid, 58.7-71.1 mCi, 7.47-8.99 mCi/mL, GE Liquid target, n=3, T0): C | Visual Inspection ([2]; 1 mg ascorbic acid, 58.7-71.1 mCi, 7.47-8.99 mCi/mL, GE Liquid target, n=3, T4 (4 h)): C | Visual Inspection ([2]; 2.5 mg ascorbic acid, 49.9-76.9 mCi, 6.31-9.72 mCi/mL, GE Liquid target, n=3, T0): C | Visual Inspection ([2]; 2.5 mg ascorbic acid, 49.9-76.9 mCi, 6.31-9.72 mCi/mL, GE Liquid target, n=3, T4 (4 h)): C | Visual Inspection ([2]; 5 mg ascorbic acid, 60-69.9 mCi, 7.61-8.81 mCi/mL, 3 × GE Liquid Target, 3 × EZAG GalliaPharm, n=6, T0): C | Visual Inspection ([2]; 5 mg ascorbic acid, 60-69.9 mCi, 7.61-8.81 mCi/mL, 3 × GE Liquid Target, 3 × EZAG GalliaPharm, n=6, T4 (4 h)): C | Visual Inspection ([2]; 10 mg ascorbic acid, 458-500 mCi, 43.4-47.3 mCi/mL, GE Solid Target, n=3, T0): C | Visual Inspection ([2]; 10 mg ascorbic acid, 458-500 mCi, 43.4-47.3 mCi/mL, GE Solid Target, n=3, T4 (4 h)): C | Visual Inspection ([2]; 10 mg ascorbic acid, 514-520 mCi, 49.0-66.1 mCi/mL, GE Solid Target, n=3, T0): C | Visual Inspection ([2]; 10 mg ascorbic acid, 514-520 mCi, 49.0-66.1 mCi/mL, GE Solid Target, n=3, T6 (6 h)): C | Visual Inspection ([2]; 15 mg ascorbic acid, 10.0-18.4 mCi, 0.95-1.77 mCi/mL, 1 × EZAG GalliaPharm, 2 × IRE Galli Eo, n=3, T0): C | Visual Inspection ([2]; 15 mg ascorbic acid, 10.0-18.4 mCi, 0.95-1.77 mCi/mL, 1 × EZAG GalliaPharm, 2 × IRE Galli Eo, n=3, T1 (1 h)): C | Visual Inspection ([2]; 15 mg ascorbic acid, 23.7-47.6 mCi, 2.26-4.53 mCi/mL, 1 × EZAG GalliaPharm, 2 × IRE Galli Eo, n=3, T0): C | Visual Inspection ([2]; 15 mg ascorbic acid, 23.7-47.6 mCi, 2.26-4.53 mCi/mL, 1 × EZAG GalliaPharm, 2 × IRE Galli Eo, n=3, T4 (4 h)): C | Visual Inspection ([2]; 20 mg ascorbic acid, 514-544 mCi, 48.3-51.9 mCi/mL, GE Solid Target, n=2, T0): C | Visual Inspection ([2]; 20 mg ascorbic acid, 514-544 mCi, 48.3-51.9 mCi/mL, GE Solid Target, n=2, T6 (6 h)): C | Visual Inspection ([2]; 50 mg ascorbic acid, 560 mCi, 71.1 mCi/mL, GE Solid Target, n=1, T0): C | Visual Inspection ([2]; 50 mg ascorbic acid, 560 mCi, 71.1 mCi/mL, GE Solid Target, n=1, T6 (6 h)): C
